Reference: patent US5256820A, “1-alkyl-2-acyl-1,2-disulfonylhydrazines” (Yale University, priority 1991, dated 1993)
“Also recorded” adds a separate entry of the source.

Columns and labels:
L1210 leukemia = experiment: Survival time of mice bearing the L1210 leukemia; format: in vivo, mouse; details: for % 60-day survivors / % T/C (average survival time of treated/control mice × 100) / AvΔ wt % (average percent change in body weight from onset to termination of therapy): at opt. effective daily dose; for % T/C (average survival time of treated/control mice × 100): 60-day survivors not included; for AvΔ wt % (average percent change in body weight from onset to termination of therapy): vehicle control +2.0; for Opt. effective daily dose: once daily for six consecutive days, beginning 24 h after tumor implantation, L1210 mice; for antineoplastic activity / curative effect (in words): L1210 leukemia mice
Procedure: The antineoplastic activity of each of the compounds of Examples 1-6 was assessed by measuring their effects on the survival time of mice bearing the L1210 leukemia by the method generally disclosed in Shyam et al. J. Med. Chem. (1990) 33:2259-2264. The compounds were administered once daily for six consecutive days. Percent change in body weight from onset to termination of therapy was recorded. The results are summarized in Table I. All of the compounds tested produced at least partial 60-day "cures" of mice bearing the L1210 leukemia. […] This compound also produced 80-90% "cures" at 10 and 15 mg/kg×6.
Effects of 2-Acyl-1,2-bis(methylsulfonyl)-1-
^a Administered once daily for six consecutive days, beginning 24 h
after tumor implantation, with 5-10 mice being used per group.
^b Average day of death for untreated tumorbearing mice was 8.4.
^c Average percent change in body weight from onset to termination of
therapy. Average percent change in body weight for vehicletreated control
^d % T/C = average survival time of treated/control mice × 100;
60day survivors are listed separately and are not included in this

[1] = Stewart and Evans (1989); cited from earlier work
Water solubility = format: physicochemical
[2] = Hydrolysis in the presence of serum from different sources (mouse, bovine, man); format: in vitro ADME; details: bovine and man, in all cases
Source text: (§1) To verify that the prodrugs would be converted to alkylating species in vivo, we performed studies on the kinetics of hydrolysis of these compounds in the presence of serum and also in the presence of proteinase K (a protease of low specificity). […] Serum from different sources, i.e., mouse, bovine and man, were not equivalent in their activities or in their rank order of substrate specificity. […] Table IV reports the effects of bovine serum concentrates on hydrolysis of two compounds--the compounds of Example 1 and Example 6.

[3] = Shyam et al. J. Med. Chem. (1990) 33:2259-2264; cited from earlier work
[4] = Spontaneous decomposition (hydrolysis) in aqueous phosphate buffer, phenol red proton release assay; format: physicochemical
Procedure: The compounds of the invention are relatively stable. As a measure of their stability, spontaneous decomposition in aqueous media was measured in phosphate buffer, pH 7.4 (37° C.). Hydrolysis at N-1 would result in the generation of a carboxylic acid and the corresponding 1,2-bis(methylsulfonyl)-1-(2-chloroethyl)hydrazine. Since both of these compounds are ionized under these conditions, the release of protons can be used to follow the decomposition of these and related compounds. The release of protons can be assayed by following the decrease in absorbance at 560 nm of a weakly buffered (1 mM potassium phosphate) phenol red (21 mg/L) solution. The assay has been calibrated using HC1 standards. […] The spontaneous hydrolysis of the compound of Example 1 at pH 7.4, 37° C. in 1 mM phosphate buffer occurs at approximately 0.7% of the rate of the corresponding prior art compounds [1,2,2-tris(methylsulfonyl)-1-(2-chloroethyl)hydrazine] under the same conditions. The rate of hydrolysis was highly sensitive to changes in temperature and pH (Tables II and III). […] At pH 7.4, 37° C., a 200 μM solution of the compound of Example 1 hydrolyzes at the rate of approximately 0.6% per hour. […] Therefore, stable aqueous solutions of this agent can be formulated. The other analogs synthesized according to Examples 2-6 also hydrolyzed at relatively slow rates.

[5] = Hydrolysis in the presence of bovine serum; format: in vitro ADME; details: for Rate of hydrolysis: 200 μM solution
Source text: as §1
Effects of Bovine Serum Concentration on the
^a Expressed nmol/ml/min for a 200 μM solution.

[6] = Alkylation of 4-(4'-nitrobenzyl)pyridine in presence and absence of bovine serum; details: 4 mM compound, 37° C., 1 h, 100 mM phosphate buffer pH 7.4
Procedure: Serum was capable of stimulating the alkylation of the model nucleophile, 4-(4'-nitrobenzyl)pyridine, by 2-acyl-1,2-bis(methylsulfonyl)-1-(2-chloroethyl)hydrazines, providing direct evidence for the serum-dependent generation of the alkylating species from these prodrugs (Table V).
Relative Alkylation of 4-(4'-Nitrobenzyl)pyridine
(NBP) by 4 mM 2-Acetyl-1,2-bis(methylsulfonyl)-1-(2-
chloroethyl)hydrazine at 37° C. for 1 h in 100 mM Phosphate
Buffer (pH 7.4) in the Presence and Absence of 20% Bovine

[7] = system: GST (glutathione-S-transferase), equine liver enzyme; experiment: GST-catalyzed GSH activation of prodrug; format: biochemical; details: 13.5 units/ml equine liver GST
Source text: Therefore, tumors resistant to conventional chloroethylating agents because of the protective effect conferred by high levels of intracellular thiols, may be more sensitive to 2-acyl-1,2-bis(methylsulfonyl)-1-methyl (or 2-chloroethyl)hydrazines. […] Although elevation of GST levels has been associated with increased resistance to a variety of alkylating agents, such a change is expected to increase sensitivity to the thiol-activated prodrugs.

[8] = Prodrug activation by GSH, methanol generation determined using alcohol oxidase
Procedure: Our belief is confirmed by the following experiment in which we incubated a solution of 2-benzoyl-1,2-bis(methylsulfonyl)-1-methylhydrazine (R=C6 H5) in phosphate buffer (pH 7.4) at 37° C. in the presence and absence of GSH. The amount of methanol generated in 10 min, determined using alcohol oxidase by methodology described by Penketh et al. (1990) 33:730-732, was used as a measure of activation of the prodrug. In the presence of 1 mM GSH, the amount of methanol generated increased approximately 10-fold, relative to that occurring in phosphate buffer alone. […] In the case of the 1-(2-chloroethyl) derivative (the compound of Example 6), 22although precise quantitation was difficult due to the limitations of the assay, the compound of Example 6 gave a 6- to 7-fold greater amount of alkylated product when reacted with the nucleophile 4-(4'-nitrobenyl)pyridine in the presence of 5 mM GSH for 30 min at 37° C. than in its absence.

CC(C)(C)C(=O)N(N(CCCl)S(C)(=O)=O)S(C)(=O)=O [Example 4, 1,2-Bis(methylsulfonyl)-1-(2-chloroethyl)-2-pivaloylhydrazine]
% 60-day survivors (L1210 leukemia): 60% | % T/C (average survival time of treated/control mice × 100) (L1210 leukemia): 302% | AvΔ wt % (average percent change in body weight from onset to termination of therapy) (L1210 leukemia): 0.0% | Opt. effective daily dose (L1210 leukemia): 20 mg/kg

CCCC(=O)N(N(CCCl)S(C)(=O)=O)S(C)(=O)=O [Example 3, 1,2-Bis(methylsulfonyl)-1-(n-butyryl)-2-(2-chloroethyl)hydrazine]
% 60-day survivors (L1210 leukemia): 20% | % T/C (average survival time of treated/control mice × 100) (L1210 leukemia): 207% | AvΔ wt % (average percent change in body weight from onset to termination of therapy) (L1210 leukemia): 0.0% | Opt. effective daily dose (L1210 leukemia): 10 mg/kg

CCCCS(=N)(=O)CCC(N)C(=O)O (stereo not drawn) [Buthionine sulfoximine]
reversal of resistance to alkylating agents (in words) [1]: reverse this resistance by reducing cellular GSH levels

COCC(=O)N(N(CCCl)S(C)(=O)=O)S(C)(=O)=O [Example 5, 1,2-Bis(methylsulfonyl)-1-(2-chloroethyl)-2-methoxyacetylhydrazine]
"cures" of tumor-bearing mice (L1210 leukemia; 10 mg/kg×6): 100% | antineoplastic activity / curative effect (in words) (L1210 leukemia): produced their curative effects at relatively low dosage levels | % 60-day survivors (L1210 leukemia): 100% | AvΔ wt % (average percent change in body weight from onset to termination of therapy) (L1210 leukemia): -8.4% | lethality (L1210 leukemia; higher dose levels examined (above 10 mg/kg×6)): lethal at the higher dose levels examined | Opt. effective daily dose (L1210 leukemia): 10 mg/kg | water solubility (in words) (Water solubility): most water-soluble analogs of this class | sensitivity to serum hydrolysis (in words) [2]: two most sensitive compounds

CS(=O)(=O)N(CCCl)N(S(C)(=O)=O)S(C)(=O)=O [PRIOR ART, 1-(2-chloroethyl)-1,2,2-tris(methylsulfonyl)hydrazine, reference compound]
antineoplastic activity (in words) [3]: displays potent antineoplastic activity | % 60-day survivors (L1210 leukemia): 100% | AvΔ wt % (average percent change in body weight from onset to termination of therapy) (L1210 leukemia): -7.2% | Opt. effective daily dose (L1210 leukemia): 60 mg/kg

CC(=O)N(N(CCCl)S(C)(=O)=O)S(C)(=O)=O [Example 1, 1-Acetyl-1,2-bis(methylsulfonyl)-2-(2-chloroethyl)hydrazine]
Relative rate of hydrolysis ([4]; 23 °C (37 °C = 1.00)): 0.21 | Relative rate of hydrolysis ([4]; 30 °C (37 °C = 1.00)): 0.57 | Relative rate of hydrolysis ([4]; 32 °C (37 °C = 1.00)): 0.72 | Relative rate of hydrolysis ([4]; 37 °C (reference, 1.00)): 1.00 | increase of hydrolysis rate with pH ([4]; for every 0.2 unit rise in pH, pH 7.4-7.8 range): approximately 50% | change of hydrolysis rate with temperature ([4]; for every 5° C. rise in temperature): double | Relative rate of hydrolysis ([4]; pH 7.4 (pH 7.8 = 1.00)): 0.48 | rate of spontaneous hydrolysis relative to prior art compound ([4]; pH 7.4, 37° C., 1 mM phosphate buffer, vs 1,2,2-tris(methylsulfonyl)-1-(2-chloroethyl)hydrazine): approximately 0.7% | Relative rate of hydrolysis ([4]; pH 7.5 (pH 7.8 = 1.00)): 0.57 | Relative rate of hydrolysis ([4]; pH 7.6 (pH 7.8 = 1.00)): 0.70 | Relative rate of hydrolysis ([4]; pH 7.8 (reference, 1.00)): 1.00 | degraded at 1 h, 200 µM ([4]; phosphate buffer, 200 μM solution, pH 7.4, 37° C., read-out: rate of hydrolysis): ~0.6% | Rate of hydrolysis ([5]; 0% v/v bovine serum): 0.02 nmol/mL/min | Rate of hydrolysis ([5]; 5% v/v bovine serum): 0.055 nmol/mL/min | Rate of hydrolysis ([5]; 10% v/v bovine serum): 0.10 nmol/mL/min | Rate of hydrolysis ([5]; 20% v/v bovine serum): 0.26 nmol/mL/min | decrease in ability of bovine serum to hydrolyze the compound after boiling ([5]; boiled dilute solutions of bovine serum): > 75% | 60-day "cures" (L1210 leukemia; 7.5 mg/kg, six daily intraperitoneal doses): 80% | antineoplastic activity / curative effect (in words) (L1210 leukemia): highly active against the L1210 leukemia; also recorded: produced their curative effects at relatively low dosage levels | % 60-day survivors (L1210 leukemia): 80% | % T/C (average survival time of treated/control mice × 100) (L1210 leukemia): 341% | AvΔ wt % (average percent change in body weight from onset to termination of therapy) (L1210 leukemia): +1.0% | Opt. effective daily dose (L1210 leukemia): 7.5 mg/kg | water solubility (in words) (Water solubility): most water-soluble analogs of this class | Relative alkylation of NBP ([6]; bovine serum (20%)): 5.7 | Relative alkylation of NBP ([6]; no serum): 1.0

CCC(=O)N(N(CCCl)S(C)(=O)=O)S(C)(=O)=O [Example 2, 1,2-Bis(methylsulfonyl)-1-(2-chloroethyl)-2-propionylhydrazine]
"cures" of mice bearing the L1210 leukemia (L1210 leukemia; 5 mg/kg×6): 60% | "cures" of mice bearing the L1210 leukemia (L1210 leukemia; 10 and 15 mg/kg×6): 80-90% | antineoplastic activity / curative effect (in words) (L1210 leukemia): appeared to be the most potent; also recorded: produced their curative effects at relatively low dosage levels | % 60-day survivors (L1210 leukemia): 90% | % T/C (average survival time of treated/control mice × 100) (L1210 leukemia): 217% | AvΔ wt % (average percent change in body weight from onset to termination of therapy) (L1210 leukemia): -6.4% | Opt. effective daily dose (L1210 leukemia): 10 mg/kg | water solubility (in words) (Water solubility): most water-soluble analogs of this class

CS(=O)(=O)N(CCCl)N(C(=O)c1ccccc1)S(C)(=O)=O [Example 6, 1-Benzoyl-1,2-bis(methylsulfonyl)-2-(2-chloroethyl)hydrazine]
Rate of hydrolysis ([5]; 0% v/v bovine serum): 0.06 nmol/mL/min | Rate of hydrolysis ([5]; 5% v/v bovine serum): 0.22 nmol/mL/min | Rate of hydrolysis ([5]; 10% v/v bovine serum): 0.52 nmol/mL/min | Rate of hydrolysis ([5]; 20% v/v bovine serum): 1.31 nmol/mL/min | % 60-day survivors (L1210 leukemia): 20% | % T/C (average survival time of treated/control mice × 100) (L1210 leukemia): 160% | AvΔ wt % (average percent change in body weight from onset to termination of therapy) (L1210 leukemia): -7.7% | Opt. effective daily dose (L1210 leukemia): 20 mg/kg | sensitivity to serum hydrolysis (in words) [2]: two most sensitive compounds

CN(N(C(=O)c1ccccc1)S(C)(=O)=O)S(C)(=O)=O [2-benzoyl-1,2-bis(methylsulfonyl)-1-methylhydrazine]
effect of GST on GSH activation rate (in words) [7]: doubling the activation rate | increase in amount of methanol generated relative to phosphate buffer alone ([8]; 1 mM GSH, 10 min, phosphate buffer pH 7.4, 37° C.): approximately 10 fold | dependence of rate of activation on GSH concentration (in words) ([8]; GSH): directly proportional to the GSH concentration

CN(N(S(C)(=O)=O)S(C)(=O)=O)S(C)(=O)=O [1-Methyl-1,2,2-tris(methylsulfonyl)hydrazine]
antineoplastic activity (in words) [3]: also showed antineoplastic activity | toxicity (in words) [3]: relatively less toxic
